These results are taken from ChEMBL document CHEMBL1201862, “PubChem BioAssay data set” (2004).

For test [1], the system named is BJ. The test is described as follows: BJ-TERT fibroblast viability loss – cell-based, RAS-independent, luminescence, dose response (AID 1933). The following applies: Homo sapiens. It counts as functional.
The subject of test [2] is BJ. Put plainly: cells. It counts as functional, cell-based. The following applies: Homo sapiens.
The test system of test [3] is J774.A1. Put plainly: Confirmation of image-based Screening Assay for Inhibitors of Phagocytosis. [Related pubchem assays (depositor defined):AID1029, AID1643]. Format: functional, cell-based. The following applies: Mus musculus.
In test [4] the test system is BJ. Put plainly: BJ-TERT-LT-ST fibroblast viability loss – cell-based, RAS-independent, luminescence, dose response (AID 1935).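 Further: BJ fibroblasts immortalized with TERT plus LT and ST oncogenes.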 It counts as functional. The following applies: Homo sapiens.
The nature of test [5]: DRD fibroblast viability loss – cell-based, non-viral oncogenic, luminescence, dose response (AID 1934). It counts as functional. The following applies: Homo sapiens.
The nature of test [6]: HEK-293T viability loss after treatment – luminescence, T-cell screen hits, cytotoxicity control for TCR NF-kB inhibitor project, dose response (AID 489026).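 Further: cells exposed to compound about 14 hours before the viability readout.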 It counts as functional, cell-based.
Test [7] concerns the target T1, Neuropeptides B/W receptor type 1 (Homo sapiens, UniProt P48145).
T1 sequence (P48145 whole entry): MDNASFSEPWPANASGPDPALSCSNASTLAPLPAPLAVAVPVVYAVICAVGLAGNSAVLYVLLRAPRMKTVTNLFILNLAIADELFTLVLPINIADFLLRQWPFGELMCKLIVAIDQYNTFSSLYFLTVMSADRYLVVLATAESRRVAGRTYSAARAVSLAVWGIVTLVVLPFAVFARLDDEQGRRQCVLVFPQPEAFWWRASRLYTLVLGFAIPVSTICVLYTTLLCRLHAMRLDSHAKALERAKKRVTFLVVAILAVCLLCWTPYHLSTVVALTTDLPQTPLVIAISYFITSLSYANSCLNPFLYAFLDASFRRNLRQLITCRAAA
The test is described as follows: Fluorescence-based dose response cell-based high throughput screening assay to identify antagonists of the G-protein coupled receptor 7 (GPR7). [Related pubchem assays: 1952 (Screening assay (GPR7 antagonists).), 1880 (Summary AID.)]. It counts as functional.

Test [8] concerns the target Melanin-concentrating hormone receptor 1 (Homo sapiens, UniProt Q99705). Put plainly: Fluorescence-based counterscreen for antagonists of the G-protein coupled receptor 7 (GPR7): cell-based high throughput dose response assay to identify antagonists of the melanin-concentrating hormone receptor 1 (MCHR1). Format: functional. On the technique in general: Counterscreens check selectivity or assay interference.

The target in test [9] is Heat shock protein HSP 90-alpha (Homo sapiens, UniProt P07900). It counts as functional, organism-based.
The target in test [10] is Lysosomal acid glucosylceramidase (Homo sapiens, UniProt P04062). The test is described as follows: Dose response cell-based high throughput screening assay to identify enhancers of beta-glucosidase activity. [Related pubchem assays: 784 ]. Format: functional.
In test [11] the target is Intestinal-type alkaline phosphatase (Homo sapiens, UniProt P09923). Put plainly: Dose Response confirmation of uHTS hits from a small molecule inhibitors of human intestinal alkaline phosphatase via a luminescent assay. [Related pubchem assays (depositor defined):AID2544, AID2574]. Format: functional.
Test [12] is described as follows: fluconazole-exposed Candida albicans growth modulators – fluorescence, retest, confirmation (AID 2467). It counts as functional, cell-based.
For test [13], the system named is Saccharomyces cerevisiae. Put plainly: S. cerevisiae Caspase-1/ASC signal blockers IC50, NALP1 inhibitor project selectivity test (AID 488863). It counts as functional, organism-based.
The target of test [14] is NACHT, LRR and PYD domains-containing protein 1 (Homo sapiens, UniProt Q9C000). Put plainly: NALP1 inhibitors in yeast, dose response, luminescent (AID 488860). It counts as functional.
For test [15], the target named is C-C chemokine receptor type 6 (Homo sapiens, UniProt P51684). Put plainly: antagonism of CCR6 beta-arrestin recruitment – cell-based, luminescent beta-arrestin readout, dose response (AID 504728). Format: functional.
For test [16], the target named is Beta-galactosidase (Escherichia coli, UniProt Q8VNN2). The test is described as follows: detection-enzyme interference by beta-gal modulators – biochemical, E. coli enzyme, set 3, artefact control for CCR6 antagonist project, dose response (AID 504712). It counts as functional.

Active and inactive are the calls of the source.

Chain of Lysosomal acid glucosylceramidase (P04062 whole entry): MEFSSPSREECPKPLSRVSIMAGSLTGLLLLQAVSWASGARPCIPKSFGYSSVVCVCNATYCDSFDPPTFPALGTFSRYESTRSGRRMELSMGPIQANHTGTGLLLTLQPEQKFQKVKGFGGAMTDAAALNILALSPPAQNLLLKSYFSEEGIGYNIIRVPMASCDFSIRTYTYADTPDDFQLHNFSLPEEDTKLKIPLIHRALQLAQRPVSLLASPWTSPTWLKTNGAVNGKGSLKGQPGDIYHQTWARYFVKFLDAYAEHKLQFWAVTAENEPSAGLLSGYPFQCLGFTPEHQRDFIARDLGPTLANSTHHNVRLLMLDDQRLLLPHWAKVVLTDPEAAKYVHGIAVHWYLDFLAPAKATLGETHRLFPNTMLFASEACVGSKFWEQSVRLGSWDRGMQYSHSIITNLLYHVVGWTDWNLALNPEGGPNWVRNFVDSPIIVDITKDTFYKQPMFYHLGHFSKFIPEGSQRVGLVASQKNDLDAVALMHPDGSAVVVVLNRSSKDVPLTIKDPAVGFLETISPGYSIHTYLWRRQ
Chain of Intestinal-type alkaline phosphatase (P09923 whole entry): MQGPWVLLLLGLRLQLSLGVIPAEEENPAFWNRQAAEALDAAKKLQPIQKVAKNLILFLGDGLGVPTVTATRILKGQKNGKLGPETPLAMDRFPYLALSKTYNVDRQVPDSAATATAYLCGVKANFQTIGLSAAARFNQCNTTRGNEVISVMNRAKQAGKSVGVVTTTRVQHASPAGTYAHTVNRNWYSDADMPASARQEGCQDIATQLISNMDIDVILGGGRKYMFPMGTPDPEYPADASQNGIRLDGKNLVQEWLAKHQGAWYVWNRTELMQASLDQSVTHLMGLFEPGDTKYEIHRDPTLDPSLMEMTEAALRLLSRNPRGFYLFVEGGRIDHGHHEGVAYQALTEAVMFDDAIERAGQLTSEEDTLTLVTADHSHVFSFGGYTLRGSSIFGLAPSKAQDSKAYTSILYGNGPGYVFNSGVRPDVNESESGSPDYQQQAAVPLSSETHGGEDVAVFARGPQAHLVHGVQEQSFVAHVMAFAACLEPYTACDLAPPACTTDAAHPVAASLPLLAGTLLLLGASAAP
Chain of NACHT, LRR and PYD domains-containing protein 1 (Q9C000 1-1212 limits assumed): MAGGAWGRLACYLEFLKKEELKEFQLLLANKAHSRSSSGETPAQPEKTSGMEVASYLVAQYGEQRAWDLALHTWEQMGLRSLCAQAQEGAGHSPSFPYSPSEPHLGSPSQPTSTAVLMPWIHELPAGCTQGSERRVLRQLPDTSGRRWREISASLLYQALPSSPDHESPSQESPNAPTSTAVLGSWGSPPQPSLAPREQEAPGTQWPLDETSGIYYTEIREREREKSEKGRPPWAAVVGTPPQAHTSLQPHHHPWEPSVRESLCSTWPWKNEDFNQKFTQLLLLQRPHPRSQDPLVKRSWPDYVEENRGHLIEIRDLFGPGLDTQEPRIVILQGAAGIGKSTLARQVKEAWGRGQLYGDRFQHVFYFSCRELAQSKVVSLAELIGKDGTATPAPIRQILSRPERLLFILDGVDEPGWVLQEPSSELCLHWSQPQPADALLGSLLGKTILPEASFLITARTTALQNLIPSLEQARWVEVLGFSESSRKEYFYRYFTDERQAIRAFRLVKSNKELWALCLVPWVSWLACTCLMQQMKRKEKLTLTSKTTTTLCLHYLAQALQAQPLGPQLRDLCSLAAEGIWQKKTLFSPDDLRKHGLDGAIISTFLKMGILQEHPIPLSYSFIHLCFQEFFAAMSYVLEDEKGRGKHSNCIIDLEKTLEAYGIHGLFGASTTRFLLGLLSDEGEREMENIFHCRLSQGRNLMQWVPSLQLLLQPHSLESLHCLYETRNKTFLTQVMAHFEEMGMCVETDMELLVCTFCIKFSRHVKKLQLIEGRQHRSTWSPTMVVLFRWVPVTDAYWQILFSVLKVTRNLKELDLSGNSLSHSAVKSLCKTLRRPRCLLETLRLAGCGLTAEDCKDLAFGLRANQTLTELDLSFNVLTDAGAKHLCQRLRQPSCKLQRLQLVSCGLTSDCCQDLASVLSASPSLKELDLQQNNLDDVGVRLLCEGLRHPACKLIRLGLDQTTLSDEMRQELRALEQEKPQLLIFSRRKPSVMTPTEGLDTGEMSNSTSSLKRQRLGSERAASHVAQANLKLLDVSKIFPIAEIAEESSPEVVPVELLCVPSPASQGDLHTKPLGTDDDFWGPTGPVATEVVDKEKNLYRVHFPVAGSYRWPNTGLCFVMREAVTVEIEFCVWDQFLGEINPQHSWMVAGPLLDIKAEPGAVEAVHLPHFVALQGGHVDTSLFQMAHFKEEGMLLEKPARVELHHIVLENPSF
Chain of NACHT, LRR and PYD domains-containing protein 1 (Q9C000 1213-1473 limits assumed): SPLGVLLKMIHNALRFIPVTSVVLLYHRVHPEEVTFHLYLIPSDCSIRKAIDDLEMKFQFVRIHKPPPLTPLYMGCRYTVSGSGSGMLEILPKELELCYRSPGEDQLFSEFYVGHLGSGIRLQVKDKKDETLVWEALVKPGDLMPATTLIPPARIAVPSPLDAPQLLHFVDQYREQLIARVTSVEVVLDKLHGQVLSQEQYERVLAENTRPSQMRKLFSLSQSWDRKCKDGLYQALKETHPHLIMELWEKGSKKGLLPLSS
Chain of Beta-galactosidase (Q8VNN2 whole entry): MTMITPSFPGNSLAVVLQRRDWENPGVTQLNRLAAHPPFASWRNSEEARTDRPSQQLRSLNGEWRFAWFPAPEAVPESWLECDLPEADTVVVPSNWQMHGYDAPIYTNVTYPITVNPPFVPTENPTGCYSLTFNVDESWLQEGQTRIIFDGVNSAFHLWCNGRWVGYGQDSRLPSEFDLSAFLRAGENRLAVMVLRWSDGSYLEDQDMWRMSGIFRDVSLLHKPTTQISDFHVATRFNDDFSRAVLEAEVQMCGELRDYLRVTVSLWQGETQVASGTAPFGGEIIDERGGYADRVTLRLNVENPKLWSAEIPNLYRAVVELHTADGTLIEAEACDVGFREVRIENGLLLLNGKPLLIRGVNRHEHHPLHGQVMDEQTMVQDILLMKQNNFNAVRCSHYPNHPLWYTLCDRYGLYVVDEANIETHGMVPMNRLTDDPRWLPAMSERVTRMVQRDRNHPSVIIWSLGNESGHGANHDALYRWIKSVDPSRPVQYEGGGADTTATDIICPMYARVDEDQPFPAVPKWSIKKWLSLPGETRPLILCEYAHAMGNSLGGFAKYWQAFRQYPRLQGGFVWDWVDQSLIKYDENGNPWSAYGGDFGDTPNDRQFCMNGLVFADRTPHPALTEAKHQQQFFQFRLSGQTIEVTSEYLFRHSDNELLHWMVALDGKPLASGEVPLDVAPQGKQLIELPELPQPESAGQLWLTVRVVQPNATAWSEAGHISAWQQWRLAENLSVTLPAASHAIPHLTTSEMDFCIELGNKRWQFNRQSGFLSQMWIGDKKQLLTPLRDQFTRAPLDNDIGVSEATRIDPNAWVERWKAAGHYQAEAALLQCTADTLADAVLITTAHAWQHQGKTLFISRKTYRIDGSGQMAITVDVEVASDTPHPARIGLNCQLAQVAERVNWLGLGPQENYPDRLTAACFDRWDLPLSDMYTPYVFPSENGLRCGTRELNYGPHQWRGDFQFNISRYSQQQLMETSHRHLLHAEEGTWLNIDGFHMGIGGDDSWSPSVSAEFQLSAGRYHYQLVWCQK
Chain of Melanin-concentrating hormone receptor 1 (Q99705 whole entry): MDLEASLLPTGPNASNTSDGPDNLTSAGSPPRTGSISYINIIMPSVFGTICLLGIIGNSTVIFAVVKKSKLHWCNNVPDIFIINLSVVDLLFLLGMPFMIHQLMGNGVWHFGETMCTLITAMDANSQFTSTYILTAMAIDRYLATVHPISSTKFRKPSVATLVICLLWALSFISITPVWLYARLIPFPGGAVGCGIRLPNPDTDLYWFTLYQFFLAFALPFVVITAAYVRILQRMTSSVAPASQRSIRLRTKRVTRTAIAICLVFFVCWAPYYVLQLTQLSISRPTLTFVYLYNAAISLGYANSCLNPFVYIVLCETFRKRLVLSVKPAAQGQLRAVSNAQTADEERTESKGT
Chain of C-C chemokine receptor type 6 (P51684 whole entry): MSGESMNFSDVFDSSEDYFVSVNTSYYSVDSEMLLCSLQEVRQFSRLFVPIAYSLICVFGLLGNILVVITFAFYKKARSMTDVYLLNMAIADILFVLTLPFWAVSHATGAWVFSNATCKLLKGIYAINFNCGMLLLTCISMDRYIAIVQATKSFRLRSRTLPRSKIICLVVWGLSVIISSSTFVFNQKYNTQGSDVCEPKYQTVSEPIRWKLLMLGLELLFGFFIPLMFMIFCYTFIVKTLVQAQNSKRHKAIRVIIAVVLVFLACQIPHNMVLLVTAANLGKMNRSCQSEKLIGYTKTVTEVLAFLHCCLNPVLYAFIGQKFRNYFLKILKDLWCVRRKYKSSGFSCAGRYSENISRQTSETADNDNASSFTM

For the compound `Cc1ccc(C(=O)c2cc([N+](=O)[O-])ccc2N2CCOCC2)c(C)c1`, the EC50 (commonly the concentration that produces a half-maximal response) in test [1] was 0.764 µM (active); in test [2], 14.2 µM (active); in test [4], 0.78 µM (inconclusive); in test [5], 0.637 µM (active). Also, the IC50 (usually the midpoint of a concentration-inhibition curve) in [3] is < 0.05 µM (inactive); in test [6] it was > 80 µM (inactive).
As for `Cc1ccc(N2C(=O)C3C4C=CC(CN=C(S)Nc5ccc(Cl)cc5)(O4)C3C2=O)cc1` (stereo unspecified), the IC50 in test [7] is given as 42.8 µM (not active); in test [8] it was 18.9 µM (not active). Further, the AC50 – broadly, the concentration giving half of the maximal activity seen – in test [9] was 25.4 µM (active).
Take `CC1(C)CC(=O)N(CC(=O)O)c2ccccc2S1`: the concentration for a half-maximal effect (EC50) in test [10] is given as > 50 µM (not active).
As for `O=C(COc1ccccc1Cl)N1CCN(c2ccc([N+](=O)[O-])c(N3CCCCC3)c2)CC1`, the IC50 in test [11] was > 100 µM (inactive).
As to `O=C1/C(=C/c2cccnc2)SC(=S)N1C1CCS(=O)(=O)C1` (stereo unspecified), in test [12], the concentration giving a half-maximal response (EC50) is 0.445 µM (active). For the same compound, the IC50 in [13] was 49.1 µM (active); in [14], 33.8 µM (active).
In the case of `CC[N+]1(C)CCC(O)(/C=C/c2ccccc2)C(C(=O)/C=C/c2ccccc2)C1` (stereo unspecified), the IC50 in [15] is 39.9 µM (inactive); in [16] it was > 66.6 µM (inactive).
